Reference: US20180140578A1, “METHODS AND COMPOSITIONS FOR THE DIAGNOSIS AND SELECTIVE TREATMENT OF CANCER” (Board of Regents of the University of Texas System, priority 2016, published 2018)

How the values were obtained:
DCAF15−/− H1155 cells = experiment: Cell viability assay, DCAF15−/− cells; assay type: cell-based, human; conditions: at concentrations as high as 50 μM
Procedure: 12-point dose responses were performed on 96-well assay plates with cell plating (1500-4000 cell per well) on day 1, compound addition on day 2, and survival measurement on day 5. Compounds were diluted in DMSO before adding to the cells. Final DMSO concentration was 0.5%. Cell survival assay was performed using CellTiter-Glo Luminescent Cell Viability Assay kit (Promega) that measures cellular ATP content. Luminescence was recorded by EnVison multimode plate reader (Perkin Elmer). IC50 was determined with GraphPad Prism using baseline correction (by normalizing to DMSO control), the asymmetric (five parameter) equation and least squares fit.
Two independent guide RNAs targeting DDB1, DDA1, DCAF15 were cloned into PX459. 0.2 million H1155 RBM39-AcGFP cells were transfected with PX459 sgRNA constructs and selected with 2 μg/ml puromycin to enrich for transfected cells. […] Cells were then trypsinized and the expression of RBM39-AGFP was quantified with flow cytometry. H1155 cells transfected with DCAF15 guide RNA were sparsely plated on 10 cm^2 plates and clones were isolated. Genomic DNA sequence flanking the cut site were amplified and sequenced to identify DCAF15−/− clones.

RBM39-3xFLAG complex = biological target: T1, RBM39-3xFLAG complex (Homo sapiens, UniProt Q14498+Q66K64); experiment: Immunoprecipitation of RBM39 complex +/− indisulam, LC-MS/MS (Table 1); conditions: H1155 RBM39-3xFLAG cells; 10 μM indisulam 2 hours
T1 construct: endogenous in cells; host or cells: H1155 RBM39-3xFLAG knock-in cells
Procedure: Anti-Flag M2 antibody (Sigma-Aldrich) was coupled to Dynabeads M-270 epoxy beads (Life Technologies) at the ratio of 10 μg of antibody/mg beads. […] Frozen cells were then pulverized in the a cryomill (Retsch) with one 25 mm steel ball and five cycles of three min at 25 Hz with intermittent cooling in liquid nitrogen. […] The lysates were centrifuged at 8000 g for 5 min at 4° C. 12 mg of conjugated Anti-Flag magnetic beads were mixed with clarified lysates for 5 min at 4° C. on a rotating platform, followed by three washes with IP buffer. Bound proteins were eluted with 1 mg/ml 3xFLAG peptide, followed by SDS-PAGE on a 10% Bis Tris gel. After brief electrophoresis, bands containing all the proteins were cut with clean blades. For western blotting of co-immunoprecipitated proteins, anti-DDA1 (ProteinTech, 14995-1-AP, 1:1000), anti-DDB1 (Abcam, ab109027, 1;10000), anti-CUL4A (Cell Signaling, 2699, 1:1000), anti-CUL4B (ProteinTech, 12916-1-AP, 1:1000) were used.
Excised gel bands were cut into approximately 1 mm^3 pieces. Gel pieces were then subjected to a modified in-gel trypsin digestion procedure (46). Gel pieces were washed and dehydrated with acetonitrile for 10 min. followed by removal of acetonitrile. Pieces were then completely dried in a speed-vac. […] Peptides were detected, isolated, and fragmented to produce a tandem mass spectrum of specific fragment ions for each peptide. […]

[1] = test system: TRIM27 mRNA and RBM3 mRNA; experiment: PCR validation of splicing changes; assay type: cell-based, human
Procedure: RNAs isolated from indisulam or siRNA treated cells were first treated with Turbo DNase (Life Technologies) to remove contaminating genomic DNA. After RNA cleanup with Quick-RNA MiniPrep kit (Zymo Research), 500 ng of total RNAs was converted into cDNAs with Multiscribe reverse transcriptase (Life Technologies). Exon skipping in TRIM27 was visualized by PCR amplification with 5′-[…]-3′ (SEQ ID NO: 3) and 5′-[…]-3′ (SEQ ID NO: 4) from cDNAs. […] Relative RNA levels were calculated based on 2^−ct method using Cyclophilin mRNA for normalization. The following primers were used for quantification of mRNA levels: […]

NS(=O)(=O)c1ccc(S(=O)(=O)Nc2cccc3c(Cl)c[nH]c23)cc1 [Indisulam, indisulam]
sensitivity of DCAF15−/− cells (DCAF15−/− H1155 cells): insensitive
recruitment of RBM39 to CUL4, DDB1, DDA1, DCAF15 CRL complex (shotgun mass spectrometry) (RBM39-3xFLAG complex): induces recruitment of RBM39
splicing of TRIM27 mRNA (RT-PCR) [1]: dose-dependent exon skipping
splicing of RBM3 mRNA (RT-PCR) ([1]; indisulam dose-dependent): intron retention
